Assay results as given in ChEMBL document CHEMBL1131779, “Synthesis and evaluation of potential complement inhibitory semisynthetic analogs of oleanolic acid” (Bioorg Med Chem Lett, 1999).

What was measured:
Homo sapiens [1] = species: Homo sapiens; experiment: The compound was tested in vitro for its inhibition of the classical pathway activation of human complement; Not active; format: functional
SK-MEL [2] = experiment: Compound was tested for its cytotoxicity against human malignant melanoma cell line SK-MEL; NA = Not active; format: functional, cell-based
[3] = The compound was tested for its apoptotic activity; no DNA migration observed; format: functional
Homo sapiens [4] = species: Homo sapiens; experiment: The compound was tested in vitro for its inhibition of the classical pathway activation of human complement; format: functional
SK-MEL [5] = experiment: Compound was tested for its cytotoxicity against human malignant melanoma cell line SK-MEL; format: functional, cell-based
[6] = In vitro therapeutic index was determined. (Therapeutic index = IC50 cytotoxicity/IC50 complement inhibition); format: functional
[7] = The compound was tested for its apoptotic activity; No DNA migration observed; format: functional

SMILES: CC(=O)O[C@H]1CC[C@]2(C)[C@H]3CC=C4[C@@H]5CC(C)(C)CC[C@]5(C(=O)O)CC[C@@]4(C)[C@]3(C)CC[C@H]2C1(C)C [ACETYL OLEANOLIC ACID]
- IC50 (Homo sapiens [1]): Not Active
- IC50 (SK-MEL [2]): Not Active
- Apoptotic activity [3]: no DNA migration observed

SMILES: CC1(C)CC[C@]2(C(=O)O)CC[C@]3(C)C(=CCC4[C@@]5(C)CC[C@H](OC(=O)CC(C)(C)C(=O)O)C(C)(C)C5CC[C@]43C)[C@@H]2C1 (some centres undefined)
- IC50 (Homo sapiens [4]): 108 µM
- IC50 (SK-MEL [5]): 77 µM
- TI [6]: 0.71

SMILES: CC1(C)CC[C@]2(CO)CC[C@]3(C)C(=CCC4[C@@]5(C)CC[C@H](O)C(C)(C)C5CC[C@]43C)[C@@H]2C1 (some centres undefined)
- IC50 (Homo sapiens [1]): Not Active
- IC50 (SK-MEL [5]): 105 µM
- Apoptotic activity [7]: No DNA migration observed

SMILES: CC1(C)CC[C@]2(C(=O)O)CC[C@]3(C)C(=CC[C@@H]4[C@@]5(C)CCC(=O)C(C)(C)[C@@H]5CC[C@]43C)[C@@H]2C1 [OLEANONIC ACID]
- IC50 (Homo sapiens [1]): Not Active
- IC50 (SK-MEL [5]): 31 µM

SMILES: CC1(C)CC[C@]2(C(N)=O)CC[C@]3(C)C(=CCC4[C@@]5(C)CC[C@H](O)C(C)(C)C5CC[C@]43C)[C@@H]2C1 (some centres undefined)
- IC50 (Homo sapiens [1]): Not Active
- IC50 (SK-MEL [2]): Not Active
- Apoptotic activity [7]: No DNA migration observed

SMILES: COC(=O)[C@]12CCC(C)(C)C[C@H]1C1=CC[C@@H]3[C@@]4(C)CC[C@H](O)C(C)(C)[C@@H]4CC[C@@]3(C)[C@]1(C)CC2 [METHYL OLEANOLATE]
- IC50 (Homo sapiens [1]): Not Active
- IC50 (SK-MEL [5]): 103 µM
- Apoptotic activity [7]: No DNA migration observed

SMILES: CC1(C)CC[C@]2(C(=O)O)CC[C@]3(C)C(=CC[C@@H]4[C@@]5(C)CC[C@H](O)C(C)(C)[C@@H]5CC[C@]43C)[C@@H]2C1 [OLEANOLIC_ACID]
- IC50 (Homo sapiens [4]): 72.3 µM
- IC50 (SK-MEL [5]): 112 µM
- TI [6]: 1.55
- Apoptotic activity [3]: no DNA migration observed

SMILES: CC(=O)O[C@H]1CC[C@@]2(C)C(CC[C@]3(C)C2C(=O)C=C2[C@@H]4CC(C)(C)CC[C@]4(C(=O)O)CC[C@]23C)C1(C)C (some centres undefined)
- IC50 (Homo sapiens [1]): Not Active
- IC50 (SK-MEL [2]): Not Active
- Apoptotic activity [7]: No DNA migration observed

SMILES: CC1(C)CC[C@]2(C(=O)NCCCCCCCCCCC(=O)O)CC[C@]3(C)C(=CCC4[C@@]5(C)CC[C@H](O)C(C)(C)C5CC[C@]43C)[C@@H]2C1 (some centres undefined)
- IC50 (Homo sapiens [1]): Not Active
- IC50 (SK-MEL [2]): Not Active
- Apoptotic activity [7]: No DNA migration observed

SMILES: C=C(C)[C@@H]1CC[C@]2(C(=O)O)CC[C@]3(C)[C@H](CC[C@@H]4[C@@]5(C)CC[C@H](O)C(C)(C)[C@@H]5CC[C@]43C)[C@@H]12 [BETULINIC ACID]
- IC50 (Homo sapiens [4]): 577 µM
- IC50 (SK-MEL [5]): 35 µM
- TI [6]: 0.06

SMILES: CC1(C)CC[C@]2(C(=O)NCC(=O)O)CC[C@]3(C)C(=CC[C@@H]4[C@@]5(C)CC[C@H](O)C(C)(C)[C@@H]5CC[C@]43C)[C@@H]2C1
- IC50 (Homo sapiens [4]): 146 µM
- IC50 (SK-MEL [5]): 115 µM
- TI [6]: 0.78
- Apoptotic activity [7]: No DNA migration observed

SMILES: CC1(C)CC[C@]2(C(=O)O)CC[C@]3(C)C(=CCC4[C@@]5(C)CC[C@H](OC(=O)COCC(=O)O)C(C)(C)C5CC[C@]43C)[C@@H]2C1 (some centres undefined)
- IC50 (Homo sapiens [4]): 31.4 µM
- IC50 (SK-MEL [5]): 93 µM
- TI [6]: 2.96

SMILES: CC(=O)O[C@H]1CC[C@@]2(C)C(CC[C@]3(C)C2CC=C2[C@@H]4CC(C)(C)CC[C@]4(C(N)=O)CC[C@]23C)C1(C)C (some centres undefined)
- IC50 (Homo sapiens [1]): Not Active
- IC50 (SK-MEL [5]): 70 µM
- Apoptotic activity [7]: No DNA migration observed

SMILES: CC(C)(CC(=O)O)CC(=O)O[C@H]1CC[C@@]2(C)C(CC[C@]3(C)C2CC=C2[C@@H]4CC(C)(C)CC[C@]4(C(=O)O)CC[C@]23C)C1(C)C (some centres undefined)
- IC50 (Homo sapiens [4]): 103 µM
- IC50 (SK-MEL [5]): 86 µM
- TI [6]: 0.83

SMILES: CC1(C)CC[C@]2(C(=O)NCCCCC(=O)O)CC[C@]3(C)C(=CCC4[C@@]5(C)CC[C@H](O)C(C)(C)C5CC[C@]43C)[C@@H]2C1 (some centres undefined)
- IC50 (Homo sapiens [4]): 31.8 µM
- IC50 (SK-MEL [5]): 127 µM
- TI [6]: 3.99

SMILES: CC1(C)CC[C@]2(C(=O)O)CC[C@]3(C)C(=CC(=O)C4[C@@]5(C)CC[C@H](O)C(C)(C)C5CC[C@]43C)[C@@H]2C1 (some centres undefined)
- IC50 (Homo sapiens [4]): 234 µM
- IC50 (SK-MEL [5]): 131 µM
- TI [6]: 0.56
